Tests used:
[1] = system: smallflower umbrella sedge; assay: Test C flooded paddy test; type: in vivo, Cyperus difformis; conditions: for Plant response rating, Sedge, Umbrella: 500 g ai/ha, visual rating after 12 to 14 days
common ragweed = assay: Test C pre-/postemergence herbicide test; type: in vivo, Ambrosia elatior; set-up: key to Plant response rating, Ragweed: 0 = no effect, 100 = complete control
In short: (§1)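 Preemergence: seeds planted and treated with compound in non-phytotoxic solvent with surfactant; postemergence: plants at 2 to 18 cm (1- to 4-leaf stage) sprayed likewise. Kept in greenhouse 12 to 14 days, then visually rated against controls, 0 (no effect) to 100 (complete control).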

soybean = assay: Test C pre-/postemergence herbicide test; type: in vivo, Glycine max
In short: as §1

giant foxtail = assay: Test C pre-/postemergence herbicide test; type: in vivo, Setaria faberi
In short: as §1

barnyardgrass = assay: Test C flooded paddy test; type: in vivo, Echinochloa crus-galli; conditions: for Plant response rating, Barnyardgrass: 500 g ai/ha, visual rating after 12 to 14 days
In short: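 Ratings (0 = no effect, 100 = complete control) come from visual comparison with untreated plants after 12 to 14 days in the greenhouse. Treatment was postemergence at the 1- to 4-leaf stage (2–18 cm), or at the 2-leaf stage for the flooded paddy barnyardgrass.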

corn = assay: Test C pre-/postemergence herbicide test; type: in vivo, Zea mays
In short: as §1

kochia = assay: Test C pre-/postemergence herbicide test; type: in vivo, Kochia scoparia
In short: as §1

morningglory = assay: Test C pre-/postemergence herbicide test; type: in vivo, Ipomoea coccinea; set-up: key to Plant response rating, Morningglory: 0 = no effect, 100 = complete control
In short: as §1

Surinam grass = assay: Test C pre-/postemergence herbicide test; type: in vivo, Urochloa decumbens
In short: as §1

rice = assay: Test C flooded paddy test; type: in vivo, Oryza sativa; conditions: for Plant response rating, Rice: 500 g ai/ha, visual rating after 12 to 14 days
In short: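 Plants were grown to the 1- to 4-leaf stage (2–18 cm) and then treated postemergence, or grown to the 2-leaf stage for the flooded paddy test. They were held in a greenhouse for 12 to 14 days and then scored by eye against controls, where 0 is no effect and 100 is complete control.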

[2] = 125 g ai/ha, scale 0 to 100 (0 no effect, 100 complete control)
[3] = 250 g ai/ha, scale of 0 to 100, 0 is no effect, 100 is complete control
[4] = scale 0 to 100 (0 no effect, 100 complete control)
[5] = Postemergence, 250 g ai/ha, scale 0 to 100, 0 no effect, 100 complete control
[6] = postemergence, 125 g ai/ha, scale 0 to 100
[7] = postemergence, 62 g ai/ha, scale 0 to 100
[8] = 62 g ai/ha, scale 0 to 100 (0 no effect, 100 complete control)
[9] = 62 g ai/ha, preemergence, scale 0 to 100
[10] = 250 g ai/ha, scale 0-100, preemergence
[11] = 500 g ai/ha, scale 0 to 100 (0 no effect, 100 complete control), visual, 12 to 14 days, preemergence
[12] = 125 g ai/ha, scale 0 (no effect) to 100 (complete control), visual, 12 to 14 days, preemergence

`CCOC(=O)c1cccc(NC(=O)c2cc(C3(C)CC3)nn2CC)c1` [Compound 295] was tested, and the “Sedge, Umbrella plant response rating” value ([1]; 62 g ai/ha, scale 0 to 100) was 80, the “Sedge, Umbrella plant response rating” value [1, 2] was 80 and the “Sedge, Umbrella plant response rating” value [1, 3] was 80. For the same molecule, the “Plant response rating, Sedge, Umbrella” value [1, 4] was 80, the “Plant response rating, Ragweed” value (common ragweed; [5]) was 40 and the “Plant response rating, Ragweed” value (common ragweed; [6]) was 30. For the same molecule, the “Plant response rating, Ragweed” value (common ragweed; [7]) was 25, the “Plant response rating, Soybean” value (soybean; [5]) was 55 and the “Plant response rating, Soybean” value (soybean; [6]) was 50. The “Plant response rating, Soybean” value (soybean; [7]) was 50, the “Plant response rating, Foxtail, Giant” value (giant foxtail; [5]) was 40 and the “Plant response rating, Foxtail, Giant” value (giant foxtail; [6]) was 35. For the same molecule, the “Plant response rating, Foxtail, Giant” value (giant foxtail; [7]) was 30, the “Barnyardgrass plant response rating” value (barnyardgrass; [8]) was 0 and the “Barnyardgrass plant response rating” value (barnyardgrass; [2]) was 15. The “Barnyardgrass plant response rating” value (barnyardgrass; [3]) was 25, the “Plant response rating, Barnyardgrass” value (barnyardgrass; [4]) was 40 and the “Plant response rating, Corn” value (corn; [5]) was 15. For the same molecule, the “Plant response rating, Corn” value (corn; [6]) was 10, the “Plant response rating, Corn” value (corn; [7]) was 5 and the “Plant response rating, Kochia” value (kochia; [5]) was 90. The “Plant response rating, Kochia” value (kochia; [6]) was 85, the “Plant response rating, Kochia” value (kochia; [7]) was 80 and the “Plant response rating, Morningglory” value (morningglory; [5]) was 30. The “Plant response rating, Morningglory” value (morningglory; [6]) was 10, the “Plant response rating, Morningglory” value (morningglory; [7]) was 10 and the “Plant response rating, Surinam Grass” value (Surinam grass; [5]) was 15. For the same molecule, the “Plant response rating, Surinam Grass” value (Surinam grass; [6]) was 5, the “Plant response rating, Surinam Grass” value (Surinam grass; [7]) was 5 and the “Rice plant response rating” value (rice; 62 g ai/ha, scale 0 to 100) was 5. For the same molecule, the “Rice plant response rating” value (rice; [2]) was 10, the “Rice plant response rating” value (rice; [3]) was 40 and the “Plant response rating, Rice” value (rice; [4]) was 40.

`CCN1N=C(C(C)(C)C)CC1C(=O)Nc1cc(C(=O)N2CC=CC2)ccc1F` (racemic) [Compound 310] was tested, and the “Sedge, Umbrella plant response rating” value ([1]; 62 g ai/ha, scale 0 to 100) was 35, the “Sedge, Umbrella plant response rating” value [1, 2] was 85 and the “Sedge, Umbrella plant response rating” value [1, 3] was 85. For the same molecule, the “Plant response rating, Sedge, Umbrella” value [1, 4] was 85, the “Plant response rating, Ragweed” value (common ragweed; [9]) was 0 and the “Plant response rating, Ragweed” value (common ragweed; [10]) was 50. The “Plant response rating, Ragweed” value (common ragweed; [11]) was 80, the “Plant response rating, Soybean” value (soybean; [9]) was 0 and the “Plant response rating, Soybean” value (soybean; [10]) was 30. The “Plant response rating, Foxtail, Giant” value (giant foxtail; [9]) was 5, the “Plant response rating, Foxtail, Giant” value (giant foxtail; [12]) was 40 and the “Plant response rating, Foxtail, Giant” value (giant foxtail; [10]) was 85. For the same molecule, the “Plant response rating, Foxtail, Giant” value (giant foxtail; [11]) was 100, the “Barnyardgrass plant response rating” value (barnyardgrass; [8]) was 35 and the “Barnyardgrass plant response rating” value (barnyardgrass; [2]) was 50. The “Barnyardgrass plant response rating” value (barnyardgrass; [3]) was 70, the “Plant response rating, Barnyardgrass” value (barnyardgrass; [4]) was 90 and the “Plant response rating, Corn” value (corn; [12]) was 0. The “Plant response rating, Corn” value (corn; [10]) was 5, the “Plant response rating, Corn” value (corn; [11]) was 10 and the “Plant response rating, Kochia” value (kochia; [9]) was 95. The “Plant response rating, Kochia” value (kochia; [12]) was 100, the “Plant response rating, Kochia” value (kochia; [10]) was 100 and the “Plant response rating, Kochia” value (kochia; [11]) was 100. The “Plant response rating, Morningglory” value (morningglory; [9]) was 0, the “Plant response rating, Morningglory” value (morningglory; [12]) was 5 and the “Plant response rating, Morningglory” value (morningglory; [10]) was 5. The “Plant response rating, Morningglory” value (morningglory; [11]) was 10, the “Plant response rating, Surinam Grass” value (Surinam grass; [9]) was 5 and the “Plant response rating, Surinam Grass” value (Surinam grass; [10]) was 30. For the same molecule, the “Plant response rating, Surinam Grass” value (Surinam grass; [11]) was 50, the “Rice plant response rating” value (rice; 62 g ai/ha, scale 0 to 100) was 35 and the “Rice plant response rating” value (rice; [2]) was 60. The “Rice plant response rating” value (rice; [3]) was 70 and the “Plant response rating, Rice” value (rice; [4]) was 80.

— patent US20060069132A1, “Azolecarboxamide herbicides” (priority 2004, published 2006)
